The source of these data is US20220306623A1, “PYRIDYL OR PYRIMIDYL MTOR KINASE INHIBITORS” (GLAXOSMITHKLINE INTELLECTUAL PROPERTY DEVELOPMENT LIMITED, priority 2019, published 2022).

Molecules are shown by their SMILES.

Assay [1] deals with phosphorylated Akt at serine 473 (pAKTs473) in primary lung fibroblasts derived from explanted tissue. As to the kind of experiment: Phosphorylated Akt (Ser473) in vitro immunoassay (MSD), fibroblasts from explanted tissue. In kind it is cell-based. Particulars: Homo sapiens, Primary lung fibroblast, 96-well, compound 2 h, PDGF-BB 10 ng/ml 15 min, read-out: mean pIC50, pAKTs473 immunoassay (converted). An excerpt: Immunoassay using the Meso Scale Discovery (MSD) platform to measure the effect of test compounds on phosphorylated Akt at serine 473 (pAKTs473) in primary lung fibroblasts derived from explanted tissue. The human biological samples were sourced ethically and their research use was in accord with the terms of the informed consents under an IRB/EC approved protocol.
Human lung fibroblasts were routinely maintained in Dulbecco's Modified Eagle Medium (DMEM; Gibco, catalogue no. 21969-035) supplemented with 10% foetal bovine serum (FBS (heat-inactivated); Gibco, catalogue no. 10270-106) and 4 mM L-glutamine (Gibco, catalogue no. 25030024) at 37° C. in 10% CO2.
For the assay, cells were harvested using Trypsin/EDTA (Gibco, catalogue no. 25300-062), resuspended to give 1.2×10^5 cells/ml and 100 ul/well seeded into 96-well plates (Corning, Catalogue No. 3596) in DMEM supplemented with 0.4% FCS and 4 mM L-glutamine and incubated overnight at 37° C. in 10% CO2.
Test compounds were dissolved in 100% DMSO to give 10 mM stock solutions and serially diluted to generate a 10-point concentration response curve. Compounds were further diluted 100-fold into 96-well V-bottom polypropylene plates (Greiner, Catalogue no. 651201) with DMEM supplemented with 0.4% FCS and 4 mM L-glutamine to give 100 µM top compound concentration in 1% DMSO.
Compounds were further diluted 10-fold by transfer to 96-well plates containing cells ([…] top concentration, 0.1% DMSO final) and incubated for 2 h at 37° C. in 10% CO2, prior to stimulation with platelet-derived growth factor (PDGF)-BB (Gibco, Catalogue no. PHG0041) at 10 ng/ml (final) for 15 min at 37° C. in 10% CO2. Cell assay plates were then incubated on ice and treated with lysis buffer (Cell Signalling Technology, Catalogue No. 9803) containing protease and phosphatase inhibitors (Halt, Thermo Scientific, Catalogue No. 78444) for 30 min.
MSD plates (MSD, Phospho(Ser473)/Total Akt Whole Cell Lysate Kit, Catalogue No. K15100D-3) were blocked with 1×blocking buffer as per the manufacturer's instructions at RT with shaking, followed by washing (×3) with Tris-buffered saline containing 0.05% Tween-20 (TBST). Cell lysates (30 ul) were added and MSD plates incubated for 1 h at RT with shaking.
Plates were washed with TBST (×3), prior to addition of SULFO-TAG Anti-Total Akt Antibody as per the manufacturer's instructions and shaken at RT for 1 h. After washing with 1×TBST (×3), read buffer (1×) (MSD, Catalogue No. R92TC-1) was added as per the manufacturer's instructions before detecting electrochemiluminescence (MSD Sector Imager 600).
Data analysis was performed using non-linear regression analysis to determine IC50 values for test compounds. Minimum (no PDGF-BB stimulation) and maximum responses (+PDGF-BB stimulation) were monitored for assay quality control.

Assay [2] has as its system type I collagen deposition in primary lung fibroblasts derived from human tissue. Nature of the assay: Type I collagen deposition (scar-in-a-jar) high content screening assay. In kind it is cell-based. The note with it: Primary lung fibroblast, 72 h, human pulmonary fibroblasts, 96-well, TGFβ-1 1 ng/ml 72 h, collagen intensity, read-out: mean pIC50, type I collagen deposition (scar-in-a-jar) (converted). The procedure:
Cellular type I collagen deposition was measured by adapting a published method; scar-in-a-jar (Chen et al., 2009) to primary lung fibroblasts derived from human tissue and combining with high content analysis to permit fluorescent quantification of collagen deposited in the extracellular matrix (ECM). The human biological samples were sourced ethically and their research use was in accord with the terms of the informed consents under an IRB/EC approved protocol. Human pulmonary fibroblasts were maintained in DMEM media (Gibco, Catalogue No 21969) supplemented with 4 mM L-glutamine (Gibco Catalogue No 25030-024) and 100/heat inactivated FBS (Gibco #10270-106, Lot #42F6663K) at 37° C. in 10%/CO2. Cells were harvested and seeded at 10,000 cells per well (85 μL/well) into black walled 96 well imaging plates (BD Falcon, 353219) in assay media (0.4%/heat inactivated FBS, 4 mM L-glutamine) and incubated overnight at 37° C., 10%/CO2.
Test compounds were dissolved in 1000/DMSO to give 10 mM stocks which were further diluted (serial 1:3) to generate 10 point concentration response curves. Assay media was supplemented with 112.5 mg/ml Ficoll 70 (Sigma, Catalogue No F2878), 75 mg/ml Ficoll 400 (Sigma, Catalogue No F4375) and 50 µg/ml ascorbic acid (Sigma, Catalogue No A8960). 3 μL compound were added to 297 μL assay media (10× compound final concentration in 1% DMSO).
Diluted compounds (15 μL) were transferred to plates containing cells and incubated for 3 h at 37° C. in 10% CO2. Transforming growth factor (TGF)β-1 (R&D Systems, Catalogue No 100-B/CF) was reconstituted according to manufacturer's instructions to give 10 µg/mL (stock) and further diluted (1 in 3333) in assay media containing Ficoll and ascorbic acid. 50 μL TGFβ-1 was added to cell plates (1 ng/ml final) and cells incubated for 72 h at 37° C. in 10% CO2.
Media was removed and cells were fixed with 50 µL/well 100% ice-cold methanol (2 min). Methanol was decanted and cells washed with PBS (3×). To permeabilise, cells were incubated with PBS containing 0.1% Triton X 100 for 90 sec, followed by PBS wash (3×). Cells were incubated with mouse anti human type I collagen monoclonal antibody (Sigma, Catalogue No C2456) diluted 1:1000 in PBS overnight at 4° C. Cells were washed with PBS containing 0.05% Tween-20 (3×) and incubated with secondary alexa fluor 488 goat-anti-mouse antibody (Invitrogen, Catalogue No A11001, 1 in 500 in PBS) and Hoechst 33342 (Sigma, Catalogue No H21492), 1 in 10000 in PBS) for 1 h at RT, prior to washing with PBS containing 0.05% Tween (×3) before finally adding 200 µL/well PBS.
Type I collagen immunoreactivity was detected using the Thermofisher CellInsight NXT set to excitation and emission wavelengths for DAPI and FITC with exposure adjusted to appropriate levels. Images were analysed using Cellomics Studio software (Version 6.6.0, build 8153) and computational algorithms to quantify “collagen intensity” and “cell count”.
Data analysis was performed by determining % response values for test compounds relative to the maximum (TGFβ-1 stimulation) fitting a ‘log(inhibitor) vs. response-Variable slope (four parameters)’ curve and recording pIC50 (inverse of Log IC50) values for test compounds.

Regarding `CC[C@H]1COCCN1c1cc(CS(C)(=O)=O)nc(-c2ccc3[nH]c(CNC)cc3n2)n1` [Example 1, [(5-{4-[(3S)-3-ethylmorpholin-4-yl]-6-(methanesulfonylmethyl)pyrimidin-2-yl}-1H-pyrrolo[3,2-b]pyridin-2-yl)methyl](methyl)amine], in assay [1], the IC50 was less than 0.1 µM.
As for `CC[C@H]1COCCN1c1cc(CS(C)(=O)=O)nc(-c2ccc3[nH]c(CO)cc3n2)n1` [Example 2, (S)-(5-(4-(3-ethylmorpholino)-6-((methylsulfonyl)methyl)pyrimidin-2-yl)-1H-pyrrolo[3,2-b]pyridin-2-yl)methanol], the IC50 in assay [2] is less than 3.98 µM.
On the same count and under the same terms, the same measure for `CC[C@H]1COCCN1c1cc(C2(S(C)(=O)=O)CCOCC2)nc(-c2ccc3[nH]c(CO)cc3n2)n1` [Example 4, (5-{4-[(3S)-3-ethylmorpholin-4-yl]-6-(4-methanesulfonyloxan-4-yl)pyrimidin-2-yl}-1H-pyrrolo[3,2-b]pyridin-2-yl)methanol]: more than 3.98 µM.
On to `CC[C@H]1COCCN1c1cc(CS(N)(=O)=O)nc(-c2ccc3[nH]c(CNC)cc3n2)n1` [Example 6, {6-[(3S)-3-ethylmorpholin-4-yl]-2-{2-[(methylamino)methyl]-1H-pyrrolo[3,2-b]pyridin-5-yl}pyrimidin-4-yl}methanesulfonamide], for which the IC50 was more than 3.98 µM in assay [2] and less than 0.1 µM in assay [1].
Take `CNCc1cc2nc(-c3cc(CS(C)(=O)=O)cc(N4CCO[C@H](C)[C@H]4C)n3)ccc2[nH]1` [Example 8, 1-(5-(6-((2R,3R)-2,3-dimethylmorpholino)-4-((methylsulfonyl)methyl)pyridin-2-yl)-1Hpyrrolo[3,2-b]pyridin-2-yl)-Nmethylmethanamine]: the IC50 in assay [2] was less than 3.98 µM.
Regarding `CCc1cc2nc(-c3nc(CS(C)(=O)=O)cc(N4C(=O)COC[C@@H]4CC)n3)ccc2[nH]1` [Example 15, (5S)-5-ethyl-4-(2-{2-ethyl-1H-pyrrolo[3,2-b]pyridin-5-yl}-6-(methanesulfonylmethyl)pyrimidin-4-yl)morpholin-3-one], the IC50 in assay [1] is less than 0.1 µM.
Regarding `CC[C@H]1COCCN1c1cc(C2(S(C)(=O)=O)CCNCC2)cc(-c2ccc3[nH]c(C)cc3n2)n1` [Example 18, (S)-3-ethyl-4-(6-(2-methyl-1H-pyrrolo[3,2-b]pyridin-5-yl)-4-(4-(methylsulfonyl)piperidin-4-yl)pyridin-2-yl)morpholine], the IC50 in assay [2] is less than 3.98 µM.
As to `CC[C@H]1COCC(=O)N1c1cc(CS(C)(=O)=O)cc(-c2ccc3[nH]c(C)cc3n2)n1` [Example 24, (S)-5-ethyl-4-(6-(2-methyl-1H-pyrrolo[3,2-b]pyridin-5-yl)-4-((methylsulfonyl)methyl)pyridin-2-yl)morpholin-3-one], the IC50 in assay [1] was less than 0.1 µM.
Take `CC[C@H]1COCC(=O)N1c1cc(CS(C)(=O)=O)cc(-c2ccc3[nH]c(CO)cc3n2)n1` [Example 27]: the IC50 in assay [2] was less than 3.98 µM.
